Results from patent US12378193B2, “Anti-arrhythmicity agents” (The Regents of the University of California, priority 2014, dated 2025).

Legend:
V1/V3 DKO MEFs = assay: Mitochondria Ca2+ uptake assay in VDAC1/VDAC3 double knockout MEFs; assay type: cell-based
Protocol: V1/V3 DKO MEFs were cultured as previously described (Roy et al., 2009a, EMBO Rep 10, 1341-1347). Efsevin-treated (15 μM for 30 min) or mock-treated MEFs were used for measurements of [Ca^2+]c in suspensions of permeabilized cells or imaging of [Ca^2+]m simultaneously with [Ca^2+]c in intact single cells. Permeabilization of the plasma membrane was performed by digitonin ([…]). Changes in [Ca^2+] in the cytoplasmic buffer upon IP3 (7.5 μM) addition in the presence or absence of ruthenium red (3 μM) was measured by fura2 in a fluorometer (Csordas et al., 2006, J Cell Biol 174, 915-921; Roy et al., 2009b, Mol Cell 33, 377-388). To avoid endoplasmic reticulum Ca^2+ uptake 2 μM thapsigargin was added before IP3. For imaging of [Ca^2+]m and [Ca^2+]c, MEFs were co-transfected with plasmids encoding polycistronic zebrafish VDAC2 with mCherry and mitochondria-targeted inverse pericam for 40 hours. Cells were sorted to enrich the transfected cells and attached to glass coverslips. In the final 10 min, of the efsevin or mock-treatment, the cells were also loaded with fura2AM (2.5μ[…]) and subsequently transferred to the microscope stage. Stimulation with 1 μM ATP was carried out in a norminally Ca^2+ free buffer. […]

VDAC2 = assay: Affinity bead pull down from zebrafish embryo lysate with mass spectrometry; assay type: binding; details: zebrafish embryonic lysate, affinity agarose beads
Protocol: For pull down assays mono-N-Boc protected 2,2′-(ethylenedioxy)bis(ethylamine) was attached to the carboxylic ester of efsevin and its derivatives through the amide bond. After removal of the Boc group using TFA, the primary amine was coupled to the carboxylic acid of Affi-Gel 10 Gel (Biorad). Two-day-old zebrafish embryos were deyolked by centrifugation before being lysed with Rubinfeld's lysis buffer (Rubinfeld et al., 1993, Science 262, 1731-1734). The lysate was precleaned by incubation with Affi-Gel 10 Gel to eliminate non-specific binding. Precleaned lysate was incubated with affinity beads overnight. Proteins were eluted from the affinity beads and separated on SDS-PAGE. Protein bands of interest were excised. Gel plugs were dehydrated in acetonitrile (ACN) and dried completely in a Speedvac. Samples were reduced and alkylated with 10 mM dithiotreitol and 10 mM TCEP solution in 50 mM NH4HCO3 (30 min at 56° C.) and 100 mM iodoacetamide (45 min in dark), respectively. Gel plugs were washed with 50 mM NH4HCO3, dehydrated with ACN, and dried down in a Speedvac. Gel pieces were then swollen in digestion buffer containing 50 mM NH4HCO3, and 20.0 ng/μL of chymotrypsin (25° C., overnight). Peptides were extracted with 0.1% TFA in 50% ACN solution, dried down and resuspended in LC buffer A (0.1% formic acid, 2% ACN).
Extracted peptides were analyzed by nano-flow LC/MS/MS on a Thermo Orbitrap with dedicated Eksigent nanopump using a reversed phase column (New Objective). The flow rate was 200 nL/min for separation: mobile phase A contained 0.1% formic acid, 2% ACN in water, and mobile phase B contained 0.1% formic acid, 20% water in ACN. The gradient used for analyses was linear from 5% B to 50% B over 60 min, then to 95% B over 15 min, and finally keeping constant 95% B for 10 min. Spectra were acquired in data-dependent mode with dynamic exclusion where the instrument selects the top six most abundant ions in the parent spectra for fragmentation. […]

For `CCOC(=O)C1=CCN(S(=O)(=O)c2ccc(C)cc2)C1c1ccccc1` (stereo not drawn) [efsevin], the “transfer of Ca2+ released from intracellular stores into mitochondria” value (V1/V3 DKO MEFs; intact V1/V3 DKO MEFs, stimulation with ATP) was “accelerated the transfer of Ca^2+”, the “Ca2+ transferred into mitochondria during IP3-induced Ca2+ release” value (V1/V3 DKO MEFs; permeabilized V1/V3DKO MEFs, efsevin 15 μM for 30 min, 7.5 μM IP3) was “increased the amount of Ca^2+ transferred into mitochondria” and the “pull down of the 32 kD band (VDAC2)” value (VDAC2) was “pulled down”.
